# Experiment: Clinical pharmacokinetics: plasma CYH33 and I27 by LC/MS/MS
# Type: in vivo, human
# Procedure: The PK characteristics of CYH33 and its active metabolite I27 were evaluated after single and multiple dose administrations. PK data were obtained from 37 patients from 7 dose cohorts: 1 mg (n = 1), 5 mg (n = 1), 10 mg (n = 2), 20 mg (n = 6), 30 mg (n = 12), 40 mg (n = 13), and 60 mg (n = 2). Intensive and sparse PK sampling was performed. Prior to initiating a continuous daily treatment cycle, the first 5 patients participated in a single dose PK treatment period with a 7-day washout in order to determine the terminal-phase half-life (t1/2) of CYH33 and its active metabolite I27. Based on the single dose PK data for CYH33 of the first 5 patients at doses of 1, 5, 10 and 20 mg, the PK and metabolic characteristics of CYH33 and I27 were evaluated. Combined with the pre-specified rules in the protocol and deliberation from the SMC, subsequent patients directly entered the continuous dose phase.
# Blood samples for PK evaluation were collected at: (1) during the single dose phase: on day 1 pre-dose and 0.5, 1, 2, 4, 8, 12, 24, 36, 48, and 72 h post-dose; (2) during the continuous dose phase: C1D1/Cycle 1 Day 28 pre-dose, and 0.5, 1, 2, 3, 4, 6, 8, 12, and 24 h post-dose; and C1D8/Day 15 pre-dose. Plasma concentrations of CYH33 and I27 were analyzed using a liquid chromatography-tandem mass spectrometry (LC/MS/MS) assay (Shimadzu Corporation, LC-30AD) with a lower limit of quantification (LLOQ) of 2.585 ng/mL and 1.0 ng/mL for CYH33 and I27, respectively. […] Blood samples for measuring the FBG level were collected within 30 min before dosing on C1D1, C1D15, and on the first day of subsequent treatment cycles.
# [1] = CYH33, Cycle 1 Day 1, 5 mg (n = 1)
# [2] = CYH33, Cycle 1 Day 1, 10 mg (n = 2)
# [3] = CYH33, Cycle 1 Day 1, 20 mg (n = 5)
compound,measurement,setting,value
"COC(=O)Nc1cc(C(F)(F)F)c(-c2nc(N3CCOCC3)c3cc(CN4CCN(S(C)(=O)=O)CC4)cn3n2)cn1 [CYH33, methyl (5-(6-((4-(methylsulfonyl)piperazin-1-yl)methyl)−4-morpholinopyrrolo[2,1-f][1,2,4]triazin-2-yl)−4-(trifluoromethyl)pyridin-2-yl)carbamate]","CYH33 plasma concentration, mean","C1D1, 1 mg, 1 h",4.6 ng/mL
same,"CYH33 plasma concentration, mean","C1D1, 1 mg, 2 h",3.8 ng/mL
same,"CYH33 plasma concentration, mean","C1D1, 1 mg, 4 h",2.9 ng/mL
same,"CYH33 plasma concentration, mean","C1D1, 1 mg, 8 h",1.8 ng/mL
same,"CYH33 plasma concentration, mean","C1D1, 1 mg, 12 h",0 ng/mL
same,"CYH33 plasma concentration, mean","C1D1, 1 mg, 36 h",0 ng/mL
same,"CYH33 plasma concentration, mean","C1D1, 1 mg, 48 h",0 ng/mL
same,"CYH33 plasma concentration, mean","C1D1, 1 mg, 72 h",0 ng/mL
same,"CYH33 plasma concentration, mean","C1D1, 5 mg, 1 h",18.1 ng/mL
same,"CYH33 plasma concentration, mean","C1D1, 5 mg, 2 h",24.6 ng/mL
same,"CYH33 plasma concentration, mean","C1D1, 5 mg, 4 h",19.5 ng/mL
same,"CYH33 plasma concentration, mean","C1D1, 5 mg, 8 h",11.8 ng/mL
same,"CYH33 plasma concentration, mean","C1D1, 5 mg, 12 h",9.7 ng/mL
same,"CYH33 plasma concentration, mean","C1D1, 5 mg, 36 h",3.8 ng/mL
same,"CYH33 plasma concentration, mean","C1D1, 5 mg, 48 h",2.5 ng/mL
same,"CYH33 plasma concentration, mean","C1D1, 10 mg, 1 h",30.2 ng/mL
same,"CYH33 plasma concentration, mean","C1D1, 10 mg, 2 h",35.3 ng/mL
same,"CYH33 plasma concentration, mean","C1D1, 10 mg, 8 h",30.2 ng/mL
same,"CYH33 plasma concentration, mean","C1D1, 10 mg, 12 h",23.9 ng/mL
same,"CYH33 plasma concentration, mean","C1D1, 10 mg, 36 h",9.3 ng/mL
same,"CYH33 plasma concentration, mean","C1D1, 10 mg, 48 h",6.8 ng/mL
same,"CYH33 plasma concentration, mean","C1D1, 20 mg, 0.5 h, in ng/mL",26.7325
same,"CYH33 plasma concentration, mean","C1D1, 20 mg, 1 h, in ng/mL",44.192
same,"CYH33 plasma concentration, mean","C1D1, 20 mg, 2 h, in ng/mL",54.18
same,"CYH33 plasma concentration, mean","C1D1, 20 mg, 3 h, in ng/mL",46.425
same,"CYH33 plasma concentration, mean","C1D1, 20 mg, 6 h, in ng/mL",32.9075
same,"CYH33 plasma concentration, mean","C1D1, 20 mg, 8 h, in ng/mL",36.04
same,"CYH33 plasma concentration, mean","C1D1, 20 mg, 36 h",23.6 ng/mL
same,"CYH33 plasma concentration, mean","C1D1, 20 mg, 48 h",15.8 ng/mL
same,"CYH33 plasma concentration, mean","C1D1, 30 mg, 0.5 h, in ng/mL",24.6458
same,"CYH33 plasma concentration, mean","C1D1, 30 mg, 1 h, in ng/mL",57.5417
same,"CYH33 plasma concentration, mean","C1D1, 30 mg, 2 h, in ng/mL",79.1167
same,"CYH33 plasma concentration, mean","C1D1, 30 mg, 3 h, in ng/mL",79.1917
same,"CYH33 plasma concentration, mean","C1D1, 30 mg, 6 h, in ng/mL",64.9583
same,"CYH33 plasma concentration, mean","C1D1, 30 mg, 8 h, in ng/mL",60.1583
same,"CYH33 plasma concentration, mean","C1D1, 30 mg, 24 h, in ng/mL",43.65
same,"CYH33 plasma concentration, mean","C1D1, 30 mg, 48 h",42.5 ng/mL
same,"CYH33 plasma concentration, mean","C1D1, 40 mg, 1 h, in ng/mL",78.4333
same,"CYH33 plasma concentration, mean","C1D1, 40 mg, 2 h",87 ng/mL
same,"CYH33 plasma concentration, mean","C1D1, 40 mg, 3 h",88.2 ng/mL
same,"CYH33 plasma concentration, mean","C1D1, 40 mg, 4 h, in ng/mL",78.0667
same,"CYH33 plasma concentration, mean","C1D1, 40 mg, 6 h, in ng/mL",62.5333
same,"CYH33 plasma concentration, mean","C1D1, 40 mg, 8 h, in ng/mL",57.6333
same,"CYH33 plasma concentration, mean","C1D1, 40 mg, 12 h, in ng/mL",47.8667
same,"CYH33 plasma concentration, mean","C1D1, 40 mg, 48 h",45.2 ng/mL
same,"CYH33 plasma concentration, mean","C1D1, 60 mg, 1 h",55.6 ng/mL
same,"CYH33 plasma concentration, mean","C1D1, 60 mg, 2 h, in ng/mL",86.475
same,"CYH33 plasma concentration, mean","C1D1, 60 mg, 3 h, in ng/mL",95.325
same,"CYH33 plasma concentration, mean","C1D1, 60 mg, 4 h, in ng/mL",109.05
same,"CYH33 plasma concentration, mean","C1D1, 60 mg, 6 h, in ng/mL",98.025
same,"CYH33 plasma concentration, mean","C1D1, 60 mg, 8 h",96.2 ng/mL
same,"CYH33 plasma concentration, mean","C1D1, 60 mg, 12 h, in ng/mL",78.575
same,"CYH33 plasma concentration, mean","C1D1, 60 mg, 48 h",61.4 ng/mL
same,"CYH33 plasma concentration, mean","C1D28, 1 mg, 0.5 h",2.38 ng/mL
same,"CYH33 plasma concentration, mean","C1D28, 1 mg, 1 h",4.57 ng/mL
same,"CYH33 plasma concentration, mean","C1D28, 1 mg, 2 h",4.43 ng/mL
same,"CYH33 plasma concentration, mean","C1D28, 1 mg, 8 h",2.84 ng/mL
same,"CYH33 plasma concentration, mean","C1D28, 1 mg, 12 h",1.9 ng/mL
same,"CYH33 plasma concentration, mean","C1D28, 1 mg, 24 h",0 ng/mL
same,"CYH33 plasma concentration, mean","C1D28, 5 mg, 0.5 h",48.6 ng/mL
same,"CYH33 plasma concentration, mean","C1D28, 5 mg, 1 h",56.2 ng/mL
same,"CYH33 plasma concentration, mean","C1D28, 5 mg, 2 h",43 ng/mL
same,"CYH33 plasma concentration, mean","C1D28, 5 mg, 8 h",23.5 ng/mL
same,"CYH33 plasma concentration, mean","C1D28, 5 mg, 12 h",20 ng/mL
same,"CYH33 plasma concentration, mean","C1D28, 5 mg, 24 h",15.1 ng/mL
same,"CYH33 plasma concentration, mean","C1D28, 10 mg, 0.5 h",49.9 ng/mL
same,"CYH33 plasma concentration, mean","C1D28, 10 mg, 1 h",61.4 ng/mL
same,"CYH33 plasma concentration, mean","C1D28, 10 mg, 2 h",77.5 ng/mL
same,"CYH33 plasma concentration, mean","C1D28, 10 mg, 8 h",55.7 ng/mL
same,"CYH33 plasma concentration, mean","C1D28, 10 mg, 12 h",47.9 ng/mL
same,"CYH33 plasma concentration, mean","C1D28, 10 mg, 24 h",35.4 ng/mL
same,"CYH33 plasma concentration, mean","C1D28, 20 mg, 0.5 h, in ng/mL",110.84
same,"CYH33 plasma concentration, mean","C1D28, 20 mg, 1 h",134 ng/mL
same,"CYH33 plasma concentration, mean","C1D28, 20 mg, 2 h, in ng/mL",135.8
same,"CYH33 plasma concentration, mean","C1D28, 20 mg, 6 h, in ng/mL",117.175
same,"CYH33 plasma concentration, mean","C1D28, 20 mg, 8 h, in ng/mL",120.72
same,"CYH33 plasma concentration, mean","C1D28, 20 mg, 12 h, in ng/mL",106.84
same,"CYH33 plasma concentration, mean","C1D28, 20 mg, 24 h, in ng/mL",83.68
same,"CYH33 plasma concentration, mean","C1D28, 30 mg, 0.5 h, in ng/mL",149.367
same,"CYH33 plasma concentration, mean","C1D28, 30 mg, 1 h, in ng/mL",154.011
same,"CYH33 plasma concentration, mean","C1D28, 30 mg, 2 h, in ng/mL",172.178
same,"CYH33 plasma concentration, mean","C1D28, 30 mg, 6 h, in ng/mL",163.956
same,"CYH33 plasma concentration, mean","C1D28, 30 mg, 8 h, in ng/mL",162.122
same,"CYH33 plasma concentration, mean","C1D28, 30 mg, 12 h, in ng/mL",143.189
same,"CYH33 plasma concentration, mean","C1D28, 40 mg, 0.5 h, in ng/mL",167.057
same,"CYH33 plasma concentration, mean","C1D28, 40 mg, 1 h, in ng/mL",191.129
same,"CYH33 plasma concentration, mean","C1D28, 40 mg, 2 h, in ng/mL",206.714
same,"CYH33 plasma concentration, mean","C1D28, 40 mg, 3 h, in ng/mL",262.333
same,"CYH33 plasma concentration, mean","C1D28, 40 mg, 6 h, in ng/mL",245.333
same,"CYH33 plasma concentration, mean","C1D28, 40 mg, 8 h, in ng/mL",166.029
same,"CYH33 plasma concentration, mean","C1D28, 40 mg, 12 h, in ng/mL",158.629
same,"CYH33 plasma concentration, mean","C1D28, 40 mg, 24 h, in ng/mL",134.657
same,"CYH33 plasma concentration, mean","C1D28, 60 mg, 0.5 h",155 ng/mL
same,"CYH33 plasma concentration, mean","C1D28, 60 mg, 1 h",184 ng/mL
same,"CYH33 plasma concentration, mean","C1D28, 60 mg, 2 h",198 ng/mL
same,"CYH33 plasma concentration, mean","C1D28, 60 mg, 3 h",193 ng/mL
same,"CYH33 plasma concentration, mean","C1D28, 60 mg, 6 h",205 ng/mL
same,"CYH33 plasma concentration, mean","C1D28, 60 mg, 8 h",181 ng/mL
same,"CYH33 plasma concentration, mean","C1D28, 60 mg, 12 h",163 ng/mL
same,"CYH33 plasma concentration, mean","C1D28, 60 mg, 24 h",135 ng/mL
same,"CL/F, mean (CV%)",[1],11.6 L/h
same,"V/F, mean (CV%)",[1],322.8 L
same,"CL/F, mean (CV%)",[2],9.2 (11) L/h
same,"V/F, mean (CV%)",[2],263.2 (24) L
same,"CL/F, mean (CV%)",[3],9.1 L/h
same,"V/F, mean (CV%)",[3],274.2 L
same,"CLss/F, mean","CYH33, Cycle 1 Day 28, 1 mg (n=1)",19.4 L/h

# Reference: article PMC9669016, “First-in-human phase Ia study of the PI3Kα inhibitor CYH33 in patients with solid tumors” (Nature Communications, 2022)
